Results reported in patent publication US6949586B2, “Synergistic composition of trans-tetracos-15-enoic acid and Apocynin and method of treatment for hepatotoxicity” (Council of Scientific Research, priority 2002, dated 2005).

Legend:
Assay type in all cases: in vivo
[1] = test system: Acetaminophen (APAP) induced hepatotoxicity; assay: Paracetamol (Acetaminophen, APAP) induced hepatotoxicity after diethyl-ether inhalation; settings: mice, 50 mg kg−1 p.o., mean ± S.E.
Text: Paracetamol (APAP, Acetaminophen): It is a therapeutic agent widely used as analgesic/antipyretic drug. When taken in large doses it causes hepatic necrosis which leads to biochemical changes having clinical features similar to those of acute viral hepatitis in humans (Proudfoot and Wright, 1970). The similar effect is observed in animals. The toxic effect can be potentiated if it is given several hours after the anesthetic ether inhalation (Wells et. al., 1986). Liver injury is induced by injecting paracetamol (200 mg.kg^-1) interaperitoneally in normal saline (pH 9.4) six hour after inhalation of anesthetic ether (4 ml/4 min/6 animals) in a closed chamber. The control animals received the equal volume of vehicle. […] (Table 2) GPT and GOT: Pyruvate formed by transamination reaction is determined spectrophotometrically after reaction with 2,4-dinitrophenylhydrazine (Reitman and Frankel, 1957). ALP: p-nitrophenol formed in alkaline medium is measured spectrophotometrically using p-nitrophenyl phosphate as substrate (Walter and Schutt, 1974). Bilirubin : Total bilirubin is measured by diazotization reaction with NaNO2 (Malloy and Evelyn, 1937) Triglycerides: Triglycerides from serum are extracted with isopropanol and sopanified with KOH. The liberated glycerol is converted to formaldehyde by periodate and determined after reaction with acetyl acetone. […]

[2] = test system: galactosamine, paracetamol and CCl4 as hepatotoxins; assay: Earlier RRL Jammu study of hepatoprotective effect against galactosamine, paracetamol and CCl4; settings: synthesized constituent; silymarin as reference material
[3] = test system: bile flow and bile solids; assay: Chloretic activity: bile flow and bile solids after bile duct cannulation; settings: rats, 50 mg kg−1 i.d.; bile collected 0-5 hours; mean ± SE
Text: The liver, by producing bile, plays an important role in digestion. The presence of bile in the intestine is necessary to accomplish the digestion and absorption of fats as well as absorption of the fat-soluble vitamins—A, D, E & K. Bile is also an important vehicle of excretion. It removes many drugs, toxins, bile pigments and various inorganic substances either derived from the diet or synthesized by the body as cholesterol or as cholic acid.
Effect on the liver bile flow of test drug and that of vehicle is carried out after cannulating the bile duct in normal anaesthesied rats. Bile collected is from each animal from 0-5 hours (Klaassen, 1969, Donal et al. 1953). (Table 5)

Structure (SMILES) | Hepatic Lipid Peroxidation [1] [n moles MDA/g liver] | hepatoprotective effect against galactosamine, paracetamol and CCl4 as hepatotoxins [2] | Bile flow (ml %), % Increase (as compared to normal) [3] [%] | Bile solids (mg %), % Increase (as compared to normal) [3] [%]
CCCCCCCC/C=C/CCCCCCCCCCCCCC(=O)O [TCA, trans-tetracos-15-enoic acid] | 44.24 ± 2.22 | dose related hepatoprotective effect | – | –
C[C@H](CCC(=O)O)[C@H]1CC[C@H]2[C@@H]3C(=O)C[C@@H]4CC(=O)CC[C@]4(C)[C@H]3CC(=O)[C@]12C [DHC, Dehydrocholic acid] | – | – | 38.40 ± 2.76 | 28.13 ± 3.89
